From patent US20130012432A1, “Peptides for Treatment of Obesity” (Novo Nordisk A/S, priority 2010, published 2013)
In brackets after ≈: the same amount, converted by molar mass. Positions of bridges follow the written chain, without caps; N, C: chain ends. Non-standard residues stand in square brackets, D forms with d. Residues, ends and D or L forms follow the SMILES beside them. Groups on a side chain read outwards from the residue. *: point of attachment. Palmitoyl(16-(5-tetrazolyl)) = O=C(CCCCCCCCCCCCCCCc1nnn[nH]1)*; Lys(CH2CO2H)2 = N[C@@H](CCCCN(CC(=O)O)CC(=O)O)C(=O)O; C18 diacid = O=C(O)CCCCCCCCCCCCCCCCC(=O)*; C16 diacid = O=C(O)CCCCCCCCCCCCCCC(=O)*; NTA = O=C(O)CN(CC(=O)O)CC(=O)*; hCys = N[C@@H](CCS)C(=O)O; Orn = NCCC[C@H](N)C(=O)O; Dab = NCC[C@H](N)C(=O)O; AEEA = NCCOCCOCC(=O)O

What was measured:
[1] = molecular target: MC1 receptor (Homo sapiens, UniProt Q01726); experiment: biochemical
Chain of MC1 receptor (Q01726 whole entry): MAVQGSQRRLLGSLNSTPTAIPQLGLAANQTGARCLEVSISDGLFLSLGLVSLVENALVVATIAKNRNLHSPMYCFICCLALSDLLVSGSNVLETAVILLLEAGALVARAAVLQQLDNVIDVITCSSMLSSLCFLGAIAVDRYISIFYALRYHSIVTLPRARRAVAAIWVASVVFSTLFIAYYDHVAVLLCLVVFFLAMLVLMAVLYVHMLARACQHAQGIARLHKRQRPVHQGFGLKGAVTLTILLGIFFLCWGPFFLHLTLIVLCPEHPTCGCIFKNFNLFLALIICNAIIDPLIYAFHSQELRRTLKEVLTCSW
Protocol: Assay (IV)—Melanocortin Receptor 1 (MC1) Binding Assay
The MC1 receptor binding assay was performed on BHK cell membranes stably expressing the MC1 receptor. The assay was performed in a total volume of 250 μl: 25 μl of ^125NDP-α-MSH (22 pM in final concentration), 25 μl of test compound/control and 200 μl of cell membrane (25 μg/ml). Test compounds were dissolved in DMSO. Radioactively labeled ligand, membranes and test compounds were diluted in buffer: 25 mM HEPES, pH 7.4, 0.1 mM CaCl2, 1 mM MgSO4, 1 mM EDTA, 0.1% HSA and 0.005% Tween™ 20. Alternatively, HSA may be substituted with ovalbumin. The samples were incubated at 30° C. for 90 min. in Costar round-bottom microtiter plates. Incubation was terminated by filtration on a Packard harvester filtermate. Rapid filtration through Packard Unifilter-96 GF/B filters pre-treated with polyetylenimine (PerkinElmer 6005277). The filters were washed with ice-cold 0.9% NaCl 8-10 times. The plates were air-dried at app. 55° C. for 30 min, and 50 μl Microscint 0 (Packard, cat. No. 6013616) was added to each well. The plates were counted in a Topcounter (1 min/well).
The data were analysed by non-linear regression analysis of binding curves, using the Windows™ program GraphPad™ Prism (GraphPad Software, USA).

[2] = physchem
Protocol: From a stock solution in vehicle, either H2O or 10 mM phosphate, containing 1 mg (as weighed) compound per ml, 8-11 aliquots are withdrawn and pH-adjusted individually with HCl/NaOH, to cover the whole pH range.

## CC(=O)N[C@H]1CCSSC[C@@H](C(=O)N2CCC[C@H]2C(=O)N2CCC[C@H]2C(=O)N[C@@H](CCCCN)C(=O)N[C@@H](CC(=O)O)C(=O)N[C@@H](CCCCNC(=O)CN(CC(=O)O)CC(=O)O)C(=O)N[C@@H](CCCCNC(=O)COCCOCCNC(=O)CCCCCCCCCCCCCCCc2nnn[nH]2)C(N)=O)NC(=O)[C@H](Cc2c[nH]c3ccccc23)NC(=O)[C@H](CCCNC(=N)N)NC(=O)[C@@H](Cc2ccccc2)NC(=O)[C@H](Cc2c[nH]cn2)NC1=O [Example 65, Ac-c[homoCys-His-D-Phe-Arg-Trp-Cys]-Pro-Pro-Lys-Asp-Lys(BCMA)-Lys[(2-{2-[16-(tetrazol-5-yl)hexadecanoylamino]ethoxy}ethoxy)acetyl]-NH2] (Ac-[hCys]H[dF]RWCPPKDK(NTA)K([AEEA-Palmitoyl(16-(5-tetrazolyl))])-NH2; disulfide 1-6)
[1]
  Ki: > 10 µM

## CC(=O)N[C@H]1CSSC[C@@H](C(=O)N2CCC[C@H]2C(=O)N2CCC[C@H]2C(=O)N[C@@H](CCCCN)C(=O)N[C@@H](CCC(=O)O)C(=O)N[C@@H](CCCCN(CC(=O)O)CC(=O)O)C(=O)N[C@@H](CCCCNC(=O)COCCOCCNC(=O)CCCCCCCCCCCCCCC(=O)O)C(N)=O)NC(=O)CNC(=O)[C@H](Cc2c[nH]c3ccccc23)NC(=O)[C@H](CCCNC(=N)N)NC(=O)[C@@H](Cc2ccccc2)NC(=O)[C@H](Cc2c[nH]cn2)NC(=O)[C@H](CCC(=O)O)NC1=O [Example 59, Ac-c[Cys-Glu-His-D-Phe-Arg-Trp-Gly-Cys]-Pro-Pro-Lys-Glu-Lys(biscarboxymethyl)-Lys({2-[2-(15-carboxypentadecanoylamino)ethoxy]ethoxy}acetyl)-NH2] (Ac-CEH[dF]RWGCPPKE[Lys(CH2CO2H)2]K([AEEA-C16 diacid])-NH2; disulfide 1-8)
[1]
  Ki: > 10 µM

## CC(=O)N[C@H]1CCCNC(=O)C[C@@H](C(=O)N2CCC[C@H]2C(=O)N2CCC[C@H]2C(=O)N[C@@H](Cc2c[nH]cn2)C(=O)N[C@@H](CCC(=O)O)C(=O)N[C@@H](CCCCN(CC(=O)O)CC(=O)O)C(=O)N[C@@H](CCCCNC(=O)COCCOCCNC(=O)CCCCCCCCCCCCCCCCC(=O)O)C(N)=O)NC(=O)[C@H](Cc2c[nH]c3ccccc23)NC(=O)[C@H](CCCNC(=N)N)NC(=O)[C@@H](Cc2ccccc2)NC(=O)[C@H](Cc2c[nH]cn2)NC1=O [Example 46, Ac-c[Orn-His-D-Phe-Arg-Trp-Asp]-Pro-Pro-His-Glu-Lys(biscarboxymethyl)-Lys({2-[2-(17-carboxyheptadecanoylamino)ethoxy]ethoxy}acetyl)-NH2] (Ac-[Orn]H[dF]RWDPPHE[Lys(CH2CO2H)2]K([AEEA-C18 diacid])-NH2; lactam 1-6)
[2]; pH 5, Solubility Conc.
  solubility: 25 µM (≈ 54.3 µg/mL)
[2]; pH 5.4, Solubility Conc.
  solubility: 24 µM (≈ 52.1 µg/mL)
[2]; pH 6.1, Solubility Conc.
  solubility: 47 µM (≈ 102 µg/mL)
[2]; pH 6.6, Solubility Conc.
  solubility: 160 µM (≈ 347 µg/mL)
[2]; pH 6.7, Solubility Conc.
  solubility: 422 µM (≈ 916 µg/mL)
[2]; pH 6.8, Solubility Conc.
  solubility: 471 µM (≈ 1020 µg/mL)
[2]; pH 7.1, Solubility Conc.
  solubility: 494 µM (≈ 1070 µg/mL)
[2]; pH 7.6, Solubility Conc.
  solubility: 509 µM (≈ 1110 µg/mL)
[2]; pH 7.8, Solubility Conc.
  solubility: 507 µM (≈ 1100 µg/mL)

## CC(=O)N[C@H]1CCNC(=O)C[C@@H](C(=O)N2CCC[C@H]2C(=O)N2CCC[C@H]2C(=O)N[C@@H](CCCNC(=N)N)C(=O)N[C@@H](CC(=O)O)C(=O)N[C@@H](CCCCN(CC(=O)O)CC(=O)O)C(=O)N[C@@H](CCCCNC(=O)COCCOCCNC(=O)CCCCCCCCCCCCCCCc2nnn[nH]2)C(N)=O)NC(=O)[C@H](Cc2c[nH]c3ccccc23)NC(=O)[C@H](CCCNC(=N)N)NC(=O)[C@@H](Cc2ccccc2)NC(=O)[C@H](Cc2c[nH]cn2)NC1=O [Example 25, Ac-c[Dab-His-D-Phe-Arg-Trp-Asp]-Pro-Pro-Arg-Asp-Lys(biscarboxymethyl)-Lys[(2-{2-[16-(tetrazol-5-yl)hexadecanoylamino]ethoxy}ethoxy)acetyl]-NH2] (Ac-[Dab]H[dF]RWDPPRD[Lys(CH2CO2H)2]K([AEEA-Palmitoyl(16-(5-tetrazolyl))])-NH2; lactam 1-6)
[2]; pH 6, Solubility Conc.
  solubility: 24 µM (≈ 52.1 µg/mL)
[2]; pH 6.3, Solubility Conc.
  solubility: 34 µM (≈ 73.9 µg/mL)
[2]; pH 7, Solubility Conc.
  solubility: 133 µM (≈ 289 µg/mL)
[2]; pH 7.3, Solubility Conc.
  solubility: 439 µM (≈ 954 µg/mL)
[2]; pH 7.4, Solubility Conc.
  solubility: 472 µM (≈ 1030 µg/mL)
[2]; pH 7.5, Solubility Conc.
  solubility: 479 µM (≈ 1040 µg/mL)
[2]; pH 7.7, Solubility Conc.
  solubility: 471 µM (≈ 1020 µg/mL)
[2]; pH 8, Solubility Conc.
  solubility: 498 µM (≈ 1080 µg/mL)
